According to patent publication EP0195097A1, “Arachidonic acid analogues, processes for their preparation and their use in medicine” (BEECHAM GROUP PLC, priority 1985, dated 1986):

How the values were obtained:
5-Lipoxygenase enzyme = target: T1, 5-Lipoxygenase enzyme (Rattus norvegicus, UniProt P12527); assay: RBL-1 5-lipoxygenase screen; type: biochemical; settings: 10,000g supernatant from RBL-1 cells; for inhibition at 50 µM: 50µM compound (cells marked *, footnote: inhibition at 50µM); for inhibition at 20 µM: 20µM compound, decrease in formation of 5-HETE and 5,12-diHETE relative to control
T1 construct: 5-Lipoxygenase enzyme was prepared as a 10,000g supernatant from RBL-1 cells; endogenous in cells; host or cells: RBL-1 cells (10,000g supernatant)
T1 sequence (P12527 1-673): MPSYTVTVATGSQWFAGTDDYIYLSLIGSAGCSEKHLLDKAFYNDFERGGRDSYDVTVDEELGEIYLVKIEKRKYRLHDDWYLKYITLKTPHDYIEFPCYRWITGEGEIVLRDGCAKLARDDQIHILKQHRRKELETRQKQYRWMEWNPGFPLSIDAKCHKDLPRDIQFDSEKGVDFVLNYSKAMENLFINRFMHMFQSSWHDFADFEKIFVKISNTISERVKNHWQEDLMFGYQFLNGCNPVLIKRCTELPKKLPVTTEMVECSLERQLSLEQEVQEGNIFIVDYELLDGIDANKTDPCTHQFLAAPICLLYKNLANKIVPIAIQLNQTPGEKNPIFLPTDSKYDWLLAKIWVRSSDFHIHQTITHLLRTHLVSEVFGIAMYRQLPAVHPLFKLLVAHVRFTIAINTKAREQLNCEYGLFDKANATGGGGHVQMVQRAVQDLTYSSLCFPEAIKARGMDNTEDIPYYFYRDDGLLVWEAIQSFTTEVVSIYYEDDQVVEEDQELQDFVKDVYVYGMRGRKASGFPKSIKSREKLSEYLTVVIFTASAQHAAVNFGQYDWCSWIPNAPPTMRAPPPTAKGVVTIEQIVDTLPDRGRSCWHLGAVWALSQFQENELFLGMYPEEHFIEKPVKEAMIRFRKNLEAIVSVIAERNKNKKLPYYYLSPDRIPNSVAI
Method: 1) RBL-1 5-LIPOXYGENASE SCREEN
5-Lipoxygenase enzyme was prepared as a 10,000g supernatant from RBL-1 cells by the method of Jakschik (Jakschik, B.A., F.F. Sun, L.M.Lee, and M.M. Steinhoff, 1980, Biochem. Biophys. Res.Comm. 95, 103). The 10,000g supernatant was diluted with homogenization buffer to the equivalent of 1.5 - 2.5 x 10^7 cells. ml.-l and made 2mM with respect to CaCl2. Aliquots of 0.5ml were then dispensed into tubes, and incubated at 29 °C with 5pl ethanol or compound in ethanol at the desired concentration for 2min. Then [1-^14C] arachidonic acid was added in buffer to give a final concentration of 6.3µM and 0.2pCi per incubation, and the reaction continued at 29 °C for 2min. The reaction was terminated by adding lml of acetone and cooling on ice, 0.5ml of ice-cold saline and 100pl of 2M formic acid were added, and the mixture was extracted with 2 x 2ml of chloroform. The extract was stored under N2 at -20 °C until analysis by chromatography. Activity was measured as the percentage of total radioactivity found in 5-HETE and 5,12-diHETE, and inhibition calculated as the decrease in formation of the sum of these two species in compound-treated incubates relative to control incubations.

cyclo-oxygenase = target: T2, cyclo-oxygenase (Bos taurus, UniProt O62664); assay: Cyclo-oxygenase screen; type: biochemical; settings: 50µM compound; bovine seminal vesicle microsomes; decrease in prostaglandin formation
T2 construct: comprising 0.96mg lyophilised bovine seminal vesicle microsomes; from tissue; host or cells: bovine seminal vesicle microsomes (lyophilised)
T2 sequence (O62664 25-600): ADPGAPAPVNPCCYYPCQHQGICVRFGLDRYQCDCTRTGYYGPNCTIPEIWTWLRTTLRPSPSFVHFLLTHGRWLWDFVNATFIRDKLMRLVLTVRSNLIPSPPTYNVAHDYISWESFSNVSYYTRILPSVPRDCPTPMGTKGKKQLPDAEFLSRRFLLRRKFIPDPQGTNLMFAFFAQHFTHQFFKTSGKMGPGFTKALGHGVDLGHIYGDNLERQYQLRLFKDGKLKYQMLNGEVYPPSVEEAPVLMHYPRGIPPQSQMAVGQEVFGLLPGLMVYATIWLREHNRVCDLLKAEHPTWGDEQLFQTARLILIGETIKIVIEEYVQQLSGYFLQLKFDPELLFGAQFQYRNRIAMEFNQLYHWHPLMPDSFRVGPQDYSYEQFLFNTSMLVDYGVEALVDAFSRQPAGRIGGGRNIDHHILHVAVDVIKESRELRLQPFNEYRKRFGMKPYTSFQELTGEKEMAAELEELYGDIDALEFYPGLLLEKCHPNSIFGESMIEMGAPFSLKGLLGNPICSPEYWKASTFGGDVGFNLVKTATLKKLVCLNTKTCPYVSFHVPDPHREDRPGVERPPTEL
Method: 2) Cyclo-oxygenase Screen
Compounds were preincubated with the incubation constitutents for 5 min at 37 °C before the reaction was started by the addition of the arachidonic acid. The reaction was continued at 37 °C for 2 min, then stopped by placing the incubations on ice and the addition of 1.2ml 0.2M citric acid. Unmetabolised substrate and prostaglandin products were extracted in ethyl acetate (2 x 4ml), the combined extracts washed with 0.8ml water, and separated by thin-layer chromatography (Kieselgel GF254 plates in ethyl acetate:acetone:glacial acetic acid, 90:10:1, v/v). Recovery was 65-80%. The regions on the thin-layer chromatography plate that chromatographed with authentic arachidonic acid or prostaglandins E2 and F2a (Rf's 0.70, 0.28 and 0.16 respectively) were scraped and the radioactivity in each determined by liquid scintillation counting with a correction for quenching being made by the external standard-channels ratio method. Inhibition of cyclo-oxygenase activity was calculated from the decrease in prostaglandin formation. Each compound concentration was tested in triplicate and the 50% inhibitory concentration, if determined, was calculated by linear regression from the inhibitory data at, at least three different compound concentrations.

Compound	inhibition at 50 µM (5-Lipoxygenase enzyme)	inhibition at 50 µM (cyclo-oxygenase)	inhibition at 20 µM (5-Lipoxygenase enzyme)
CCCCCCCCCCCC#Cc1ccccc1C=C(C(=O)O)C(=O)OCC [Example 24]	60%	70%	–
CCCCCCCCCCCC#Cc1ccccc1C=C(C(=O)O)C(=O)O [Example 25]	55%	59%	–
CCCCCCCCCCC/C=C\c1ccccc1C=C(C(=O)O)C(=O)O [Example 29]	–	–	67%
CCCCCCC#Cc1ccc(C=C(C(=O)O)C(=O)OC)cc1 [Example 49]	–	–	15%
CCCCCCC#Cc1ccc(C=C(C(=O)O)C(=O)O)cc1 [Example 50]	–	–	16%
CCCCCCC#Cc1ccccc1OCCCC(C(=O)O)C(=O)OCC (centres unmarked) [Example 55]	–	–	63%
CCCCCCC#Cc1cccc(OCCCC(C(=O)O)C(=O)OCC)c1 (centres unmarked) [Example 56]	52%	–	–
CCCCCCC#Cc1ccccc1OCCCC(C(=O)O)C(=O)O [Example 57]	–	–	54%
CCCCCCCCCCC/C=C\c1cccc(C=C(C(=O)O)C(=O)O)c1 [Example 63]	–	–	82%
CCCCCC/C=C\c1ccc(C=C(C(=O)O)C(=O)O)cc1 [Example 64]	–	–	49%
CCCCCC/C=C\c1cccc(OCCCC(C(=O)O)C(=O)OCC)c1 (centres unmarked) [Example 68]	–	40%	62.5%
CCCCCC/C=C\c1cccc(OCCCC(C(=O)O)C(=O)O)c1 [Example 69]	–	–	44%

The next lines start with the values.

inhibition at 50 µM (5-Lipoxygenase enzyme)	inhibition at 50 µM (cyclo-oxygenase)	inhibition at 20 µM (5-Lipoxygenase enzyme)	Compound
–	59%	–	CCCCCCCCCCCC#Cc1ccc(C=C(C(=O)O)C(=O)O)cc1 [Example 27]
–	76%	63%	CCCCCCCCCCCC#Cc1ccccc1CC(C(=O)O)C(=O)O [Example 28]
–	–	25%	CCCCCCCCCCCC#Cc1cccc(C=C(C(=O)O)C(=O)O)c1 [Example 51]
–	–	51%	CCCCCCCCCCCC#Cc1cccc(CC(C(=O)O)C(=O)O)c1 [Example 52]
45%	38%	–	CCCCCCC#Cc1cccc(OCCCC(C(=O)O)C(=O)O)c1 [Example 58]
–	–	84%	CCCCCCCCCCC/C=C\c1cccc(CC(C(=O)O)C(=O)O)c1 [Example 66]
